“And” between values parts separate entries of the source, which are not always exact repeats. Equal values may be shown once. Read-outs that look alike come from different tables or passages of the source.
Experiments:
[1] = 37° C.
[2] = simulated intestinal fluid, 100 μM, 37° C.
[3] = not given; remark: listed apart in the source
in vivo [4] = details: female, Balb/c, mouse, iv, 100 mg/kg
in vivo [5] = details: female, Balb/c, mouse, iv, 75 mg/kg, Balb/c mice, plasma; for AUC / clearance / Cmax / Vd: after i.v. 75 mg/kg Ala-d4T-MP; for clearance: CL; for Vd: Vss; for half-life: t1/2, after i.v. 75 mg/kg Ala-d4T-MP
in vivo [6] = details: female, Balb/c, mouse, po, 100 mg/kg, Balb/c mice, plasma; for AUC / Cmax / Tmax: after oral 100 mg/kg d4T-5′-[p-bromophenyl methoxyalaninyl phosphate]; for half-life: t1/2, after oral 100 mg/kg d4T-5′-[p-bromophenyl methoxyalaninyl phosphate]
[7] = after i.v. 40 mg/kg d4T, Balb/c mice, plasma; mean ± S.E.M. (in parentheses)
[8] = after oral 100 mg/kg d4T-5′-[p-bromophenyl methoxyalaninyl phosphate], Balb/c mice, plasma; mean ± S.E.M. (in parentheses)
[9] = tested on: Josiach strain of Lassa Virus; set-up: species or system CBA mice; details: mouse, in vivo
[10] = for mean percent hydrolysis in plasma: 250 μM
[11] = 100 μM, mouse liver homogenate
[12] = female, Balb/c, mouse, in vivo, iv
[13] = mouse, in vivo; cited from earlier work
[14] = rat, in vivo; cited from earlier work
[15] = dog, in vivo; cited from earlier work
[16] = in vivo; cited from earlier work
[17] = model fit after i.v. 75 mg/kg Ala-d4T-MP, C.V. of modeling in parentheses, 75 mg/kg
[18] = estimate from composite pooled data

Cc1cn([C@H]2C=C[C@@H](COP(=O)(O)N[C@@H](C)C(=O)O)O2)c(=O)[nH]c1=O [Ala-d4T-MP, alaninyl-d4T-monophosphate]
stability in plasma (100 μM, for 1 day): stable
stability in whole blood ([1]; 100 μM, for 1 day): stable
stability in intestinal fluid [2]: stable
CLm1 as share of the total systemic clearance ([3]; after i.v. 75 mg/kg Ala-d4T-MP): 99%
fraction converted to d4T ([3]; after intravenous administration of Ala-d4T-MP): 15%
CLml (metabolic clearance of Ala-d4T-MP / formation clearance of d4T) [3, 17]: 15.6 ml/min/kg and 15.6 (16.6%) ml/min/kg
CLpd (distribution of Ala-d4T-MP to the extravascular compartment) [3, 17]: 4.7 ml/min/kg and 4.7 (44.7%) ml/min/kg
AUC (in vivo [4]; AUC): 47.6 µM·h
Cmax (in vivo [4]; Cmax): 67.4 µM
half-life (in vivo [4]; t1/2): 129 min
Tmax (in vivo [4]; tmax): 5.9 min
AUC (in vivo [5]; [18]): 194 µM·h
AUC (in vivo [5]; mean ± S.E.M. (in parentheses)): 196 µM·h
clearance (in vivo [5]; [18]): 15.8 mL/min/kg
clearance (in vivo [5]; mean ± S.E.M. (in parentheses)): 15.7 mL/min/kg
Cmax (in vivo [5]; [18]): 1210 µM
Cmax (in vivo [5]; mean ± S.E.M. (in parentheses)): 1660 µM
Vd (in vivo [5]; [18]): 0.276 L/kg
Vd (in vivo [5]; mean ± S.E.M. (in parentheses)): 0.413 L/kg
half-life (in vivo [5]; [18]): 28.5 min
half-life (in vivo [5]; mean ± S.E.M. (in parentheses)): 91.5 min
AUC (in vivo [6]; [18]): 22.5 µM·h
AUC (in vivo [6]; mean ± S.E.M. (in parentheses)): 22.6 µM·h
Cmax (in vivo [6]; [18]): 12.7 µM
Cmax (in vivo [6]; mean ± S.E.M. (in parentheses)): 15.6 µM
half-life (in vivo [6]; [18]): 66.4 min
half-life (in vivo [6]; mean ± S.E.M. (in parentheses)): 56.1 min
Tmax (in vivo [6]; [18]): 10.3 min
Tmax (in vivo [6]; mean ± S.E.M. (in parentheses)): 9.3 min

Cc1cn([C@H]2C=C[C@@H](CO)O2)c(=O)[nH]c1=O [d4T, 2′,3′-didehydro-2′,3′-dideoxythymidine]
Tmax ([3]; after i.v. 75 mg/kg Ala-d4T-MP, Balb/c mice, plasma, mean ± S.E.M. (in parentheses)): (5.0 ± 1.2) min
CLme (elimination of d4T derived from Ala-d4T-MP) [3, 17]: 88.4 ml/min/kg and 88.4 (13.0%) ml/min/kg
AUC [7]: (12173.6 ± 559.5) μM · min
AUC [8]: (5928.4 ± 294.6) μM · min
Cmax [8]: 29.5 µM
Tmax [8]: (45.2 ± 5.2) min
t1/2 [8]: (102.6 ± 3.8) min

COC(=O)C(C)NP(=O)(OC[C@@H]1C=C[C@H](n2cc(C)c(=O)[nH]c2=O)O1)Oc1ccc(Br)cc1 (stereo partly drawn) [d4T-5′-[p-bromophenylmethoxyalaninyl phosphate]]
median survival [9]: > 21 days
mice remaining healthy beyond the 21-day observation period [9]: 9 mice
mice surviving beyond the 21 day observation period [9]: 6 mice
probability of survival at 21 days [9]: 75% and 90%
stability in plasma (250 μM): very unstable
time to complete decomposition in plasma (250 μM): ≤ 30 min
decomposed following incubation with plasma (250 μM, after 5 minutes): over 95%
stability in whole blood ([1]; 250 μM): very unstable
time to complete decomposition in whole blood ([1]; 250 μM): ≤ 30 min
decomposed in whole blood ([1]; 250 μM, 5 minutes): 68%
decomposed in whole blood ([1]; 250 μM, 10 minutes): 87%
decomposed in whole blood ([1]; 250 μM, 15 minutes): 92%
mean percent hydrolysis in plasma ([10]; EDTA (1 mM; arylesterase), 5 min): 99%
mean percent hydrolysis in plasma ([10]; EDTA (1 mM; arylesterase), 10 min): 100%
mean percent hydrolysis in plasma ([10]; EDTA (1 mM; arylesterase), 15 min): 100%
mean percent hydrolysis in plasma ([10]; EDTA (1 mM; arylesterase), 30 min): 100%
mean percent hydrolysis in plasma ([10]; EDTA (1 mM; arylesterase), 60 min): 100%
mean percent hydrolysis in plasma ([10]; EDTA (1 mM; arylesterase), 120 min): 100%
decomposition in plasma, effect of EDTA ([10]; EDTA, 37° C.): not affected
mean percent hydrolysis in plasma ([10]; No inhibitor, 5 min): 95%
mean percent hydrolysis in plasma ([10]; No inhibitor, 10 min): 98%
mean percent hydrolysis in plasma ([10]; No inhibitor, 15 min): 99%
mean percent hydrolysis in plasma ([10]; No inhibitor, 30 min): 100%
mean percent hydrolysis in plasma ([10]; No inhibitor, 60 min): 100%
mean percent hydrolysis in plasma ([10]; No inhibitor, 120 min): 100%
mean percent hydrolysis in plasma ([10]; Physostigmine (0.1 mM; cholinesterase), 5 min): 43%
mean percent hydrolysis in plasma ([10]; Physostigmine (0.1 mM; cholinesterase), 10 min): 65%
mean percent hydrolysis in plasma ([10]; Physostigmine (0.1 mM; cholinesterase), 15 min): 76%
mean percent hydrolysis in plasma ([10]; Physostigmine (0.1 mM; cholinesterase), 30 min): 89%
mean percent hydrolysis in plasma ([10]; Physostigmine (0.1 mM; cholinesterase), 60 min): 100%
mean percent hydrolysis in plasma ([10]; Physostigmine (0.1 mM; cholinesterase), 120 min): 100%
decomposition in plasma, effect of physostigmine ([10]; physostigmine 0.1 mM, 37° C.): partially inhibited
time to decomposition after incubation with liver homogenate [11]: ≤ 30 min
decomposed in intestinal fluid ([2]; within 2 hours): approximately 94%
fraction converted to Ala-d4T-MP [12]: 23%
fraction converted to d4T [12]: 24%
acute or subacute toxicity [13]: very well tolerated without any detectable acute or subacute toxicity
toxicity on daily administration [13]: not associated with any detectable toxicity
acute or subacute toxicity [14]: very well tolerated without any detectable acute or subacute toxicity
toxicity on daily administration [14]: not associated with any detectable toxicity
tolerability [15]: very well tolerated
tolerability [16]: very well tolerated
